# Results: PMC8717366, “Synthesis and Pharmacological Characterization of Visabron, a Backbone Cyclic Peptide Dual Antagonist of α4β1 (VLA-4)/α9β1 Integrin for Therapy of Multiple Sclerosis” (JACS Au, 2021)
# Peptide text beside a SMILES is read from it.
# Assays:
# [1] = assay type: in vitro ADME, male Wistar rats; details: incubation in rat plasma, 37 °C
# Procedure: Figure S7- Metabolic stability of linear (blue) and cyclic Visabrons in rat plasma (n=3) […]
# (orange, green, red). The […]
# amount of peptides is presented as a percentage of the sample at time 0.
# Figure S8- A. Calibration curve of Visabron c(4-4) (prepared by spiking the standard working stock solution with 15 μl of the different concentration, 20 μl metoprolol (10 μg/mL) and 135 -μl blank rat plasma. B. Profile of plasma concentration of Visabron c(4-4) vs time in rats following i.v. bolus administr ation of 0.515 mg/kg; C. semi - logarithmic plot of plasma concentration of Visabron c(4-4) vs time (n = 4 , mean ± SD). […]
# For peptide sequencing, the protein digest mixture was subjected to electrospray ionization MS/MS analysis using a QTrap mass spectrometer, equipped with a nanospray source. […] Quantitation of free cysteine residues and disulfide bonds was done as previously described4. […]
# α1β1-collagen IV = molecular target: T1, α1β1-collagen IV (Homo sapiens, UniProt P05556+P56199); test: Adhesion of α1-K562 overexpressor cells to immobilized collagen IV; assay type: cell-based; details: α1-K562 overexpressing cells, collagen IV; n=6; Table S6; read-out: IC50 α1β1 (linear peptides)
# T1 construct: expressed in transfected cells; host or cells: K562 transfected with α1 integrin (gift of Dr. M. Hemler)
# Procedure: (§1) Cell adhesion assay was carried out as previously described[47] with minor modifications. The day before the experiment, each well was coated with VCAM-1 (3 mg/mL) immobilized on the 96-well plate in PBS by overnight incubation at 4 °C. Thereafter, nonspecific binding was blocked by incubating the wells with 1% (w/v) bovine serum albumin (BSA) in Hank’s Balanced Salt Solution (HBSS) containing 5 mM MgCl2 at room temperature for 1 h before use. The cells were labeled by incubation with 12.5 μM 5-chloromethylfluorescein diacetate (CMFDA) in HBSS without 1% BSA at 37 °C for 30 min. The labeled cells were then centrifuged at 1000 rpm and washed twice with HBSS containing 1% BSA to remove excess CMFDA. Labeled cells (about 1 × 10^5 cells/well) were plated on each well in the presence or absence of visabrons and incubated at 37 °C for 60 min. Unbound cells were removed by washing the wells three times with 1% (w/v) BSA in HBSS, and bound cells were lysed by the addition of 0.5% Triton X-100 (diluted in DDW). The fluorescence in each well was quantified with a SPECTRAFluor Plus plate reader (Tecan), at λex = 485 nm and λem = 530 nm. To determine the number of adhered cells from the fluorescence values, a standard curve was generated by serial dilution of known numbers of CMFDA-labeled cells. […]
# (§2) Table S6. TMLD- linear peptides inhibition of adhesion of integrin expressing cells to the respective immobilized ligands a a The cells were incubated for 30 min at 37 °C with the cells (1 x 105) in the 96 -well plate, previously covered with extracellular matrix ligand, in 100 µL of HBSS containing calcium and magnesium. After being washed with the same buffer, the adhered cells were lysed by Triton X-100, and the plate was read using Tecan spectrofluorimeter. The inhibitory dose 50% (IC 50) values represent ing mean ± standard deviatio ns (n=6) were calculated from dose response curves. bJurkat cells,VCAM -1; c α9-SW480 overexpressing cells, VCAM-1; d α1-K562 overexpressing cells, collagen IV ;e α2-K562 overexpressing cells, collagen I; f K562 wild type
# α2β1-collagen I = molecular target: T2, α2β1-collagen I (Homo sapiens, UniProt P05556+P17301); test: Adhesion of α2-K562 overexpressor cells to immobilized collagen I; assay type: cell-based; details: α2-K562 overexpressing cells, collagen I; n=6; Table S6; read-out: IC50 α2β1 (linear peptides)
# T2 construct: expressed in transfected cells; host or cells: K562 transfected with α2 integrin (gift of Dr. M. Hemler)
# Procedure: as §1, §2
# α9β1 = molecular target: T3, α9β1 (Homo sapiens, UniProt P05556+Q13797); test: Adhesion of α9-SW480 overexpressing cells to VCAM-1; assay type: cell-based; details: n=6, Table S6, read-out: IC50 α9β1 (linear peptides)
# T3 construct: generated by transfection with full-length α9 expression plasmid pcDNAIneoa9; expressed in transfected cells; host or cells: SW480 transfected with pcDNAIneoa9
# Procedure: as §2, with “type […]” for “type”
# (1 picture or pasted object on this page, not shown here)
# α5β1-fibronectin = molecular target: T4, α5β1-fibronectin (Homo sapiens, UniProt P05556+P08648); test: Adhesion of wild-type K562 cells to immobilized fibronectin; assay type: cell-based; details: K562 wild type cells, fibronectin; n=6; Table S6; read-out: IC50 α5β1 (linear peptides)
# T4 construct: host or cells: K562 wild type
# Procedure: as §1, §2
# [2] = molecular target: T5, α4β1 (Jurkat lymphocytes-VCAM-1) (Homo sapiens, UniProt P05556+P13612); test: Adhesion of Jurkat lymphocytes to immobilized VCAM-1; assay type: cell-based; details: Jurkat cells, VCAM-1; n=6; Table S6; read-out: IC50 α4β1 (linear peptides)
# T5 construct: host or cells: Jurkat (untreated or TNFα-treated)
# Procedure: as §1, §2
# T5 sequence (P13612 34-1032): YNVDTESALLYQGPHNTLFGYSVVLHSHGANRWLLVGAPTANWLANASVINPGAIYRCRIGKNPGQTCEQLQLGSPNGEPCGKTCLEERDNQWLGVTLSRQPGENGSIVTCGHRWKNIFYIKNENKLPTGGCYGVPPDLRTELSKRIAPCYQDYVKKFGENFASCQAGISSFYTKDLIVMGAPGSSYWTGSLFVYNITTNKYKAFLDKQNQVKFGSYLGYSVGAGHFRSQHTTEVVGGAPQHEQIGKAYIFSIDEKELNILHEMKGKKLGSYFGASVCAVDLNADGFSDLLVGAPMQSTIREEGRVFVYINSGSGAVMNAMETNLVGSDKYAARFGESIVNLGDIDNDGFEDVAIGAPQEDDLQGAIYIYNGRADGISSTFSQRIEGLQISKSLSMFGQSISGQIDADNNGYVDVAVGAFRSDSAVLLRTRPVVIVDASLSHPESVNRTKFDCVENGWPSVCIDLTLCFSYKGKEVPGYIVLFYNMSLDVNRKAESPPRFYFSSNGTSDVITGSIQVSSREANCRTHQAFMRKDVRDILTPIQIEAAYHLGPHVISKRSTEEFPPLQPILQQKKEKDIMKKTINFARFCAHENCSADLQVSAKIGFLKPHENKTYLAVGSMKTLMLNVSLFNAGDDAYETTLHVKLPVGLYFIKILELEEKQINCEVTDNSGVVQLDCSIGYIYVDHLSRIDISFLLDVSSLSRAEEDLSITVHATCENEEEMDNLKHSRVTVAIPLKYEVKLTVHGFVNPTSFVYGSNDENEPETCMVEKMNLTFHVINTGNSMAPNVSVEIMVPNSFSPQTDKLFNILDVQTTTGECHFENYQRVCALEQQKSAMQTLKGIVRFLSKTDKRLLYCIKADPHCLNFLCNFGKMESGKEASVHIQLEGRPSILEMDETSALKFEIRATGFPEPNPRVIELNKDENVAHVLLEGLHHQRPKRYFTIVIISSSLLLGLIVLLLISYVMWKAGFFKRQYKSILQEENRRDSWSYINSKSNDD
# T5 sequence (P05556 21-798): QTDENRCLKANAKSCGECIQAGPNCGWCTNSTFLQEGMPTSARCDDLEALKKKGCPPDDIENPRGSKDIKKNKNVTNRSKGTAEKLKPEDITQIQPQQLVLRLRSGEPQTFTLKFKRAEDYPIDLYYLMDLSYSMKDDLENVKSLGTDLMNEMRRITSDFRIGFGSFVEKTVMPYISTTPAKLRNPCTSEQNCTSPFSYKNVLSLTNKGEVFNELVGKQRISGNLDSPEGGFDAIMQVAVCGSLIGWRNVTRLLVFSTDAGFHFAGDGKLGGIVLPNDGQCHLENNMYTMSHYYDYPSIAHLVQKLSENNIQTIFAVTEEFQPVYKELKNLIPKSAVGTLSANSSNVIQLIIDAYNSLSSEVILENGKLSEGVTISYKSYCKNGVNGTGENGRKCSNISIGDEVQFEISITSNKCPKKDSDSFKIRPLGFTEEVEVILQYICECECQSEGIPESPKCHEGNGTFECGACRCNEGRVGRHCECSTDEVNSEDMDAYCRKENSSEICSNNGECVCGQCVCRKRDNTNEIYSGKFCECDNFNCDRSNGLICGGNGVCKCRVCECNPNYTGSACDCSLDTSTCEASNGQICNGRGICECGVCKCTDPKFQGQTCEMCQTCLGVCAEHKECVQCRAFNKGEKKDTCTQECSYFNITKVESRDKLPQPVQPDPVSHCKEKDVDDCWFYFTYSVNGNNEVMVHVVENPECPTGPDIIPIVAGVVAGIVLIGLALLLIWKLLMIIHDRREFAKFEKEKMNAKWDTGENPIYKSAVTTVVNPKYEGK
# T3 sequence (Q13797 30-1035): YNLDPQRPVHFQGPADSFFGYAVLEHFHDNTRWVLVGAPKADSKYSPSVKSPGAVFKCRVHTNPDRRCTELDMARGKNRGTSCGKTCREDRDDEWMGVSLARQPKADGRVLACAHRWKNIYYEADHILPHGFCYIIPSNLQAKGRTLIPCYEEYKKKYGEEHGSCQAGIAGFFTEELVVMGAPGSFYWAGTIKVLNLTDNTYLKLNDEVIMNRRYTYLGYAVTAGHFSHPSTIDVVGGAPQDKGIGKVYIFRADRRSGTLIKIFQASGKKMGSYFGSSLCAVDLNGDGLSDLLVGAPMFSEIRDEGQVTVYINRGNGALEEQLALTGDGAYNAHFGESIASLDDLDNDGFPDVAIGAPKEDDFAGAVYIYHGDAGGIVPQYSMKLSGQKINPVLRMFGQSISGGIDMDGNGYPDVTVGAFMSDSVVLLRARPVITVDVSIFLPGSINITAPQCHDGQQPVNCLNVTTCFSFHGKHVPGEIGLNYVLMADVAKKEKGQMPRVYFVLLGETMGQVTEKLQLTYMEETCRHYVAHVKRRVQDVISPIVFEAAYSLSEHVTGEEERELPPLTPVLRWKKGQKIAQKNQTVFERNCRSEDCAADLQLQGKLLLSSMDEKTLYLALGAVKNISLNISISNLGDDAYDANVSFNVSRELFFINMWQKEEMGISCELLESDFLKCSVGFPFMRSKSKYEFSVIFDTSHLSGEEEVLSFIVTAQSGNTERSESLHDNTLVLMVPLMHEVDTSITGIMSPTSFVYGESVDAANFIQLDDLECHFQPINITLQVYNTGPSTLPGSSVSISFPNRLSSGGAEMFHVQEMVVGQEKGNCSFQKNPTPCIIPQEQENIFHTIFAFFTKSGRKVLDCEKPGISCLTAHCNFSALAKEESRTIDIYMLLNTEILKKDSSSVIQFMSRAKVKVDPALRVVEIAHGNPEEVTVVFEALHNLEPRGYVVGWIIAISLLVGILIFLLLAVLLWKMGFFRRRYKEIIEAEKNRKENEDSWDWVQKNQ
# T3 sequence (P05556 21-798): as the sequence (P05556 21-798) above
# T2 sequence (P17301 30-1181): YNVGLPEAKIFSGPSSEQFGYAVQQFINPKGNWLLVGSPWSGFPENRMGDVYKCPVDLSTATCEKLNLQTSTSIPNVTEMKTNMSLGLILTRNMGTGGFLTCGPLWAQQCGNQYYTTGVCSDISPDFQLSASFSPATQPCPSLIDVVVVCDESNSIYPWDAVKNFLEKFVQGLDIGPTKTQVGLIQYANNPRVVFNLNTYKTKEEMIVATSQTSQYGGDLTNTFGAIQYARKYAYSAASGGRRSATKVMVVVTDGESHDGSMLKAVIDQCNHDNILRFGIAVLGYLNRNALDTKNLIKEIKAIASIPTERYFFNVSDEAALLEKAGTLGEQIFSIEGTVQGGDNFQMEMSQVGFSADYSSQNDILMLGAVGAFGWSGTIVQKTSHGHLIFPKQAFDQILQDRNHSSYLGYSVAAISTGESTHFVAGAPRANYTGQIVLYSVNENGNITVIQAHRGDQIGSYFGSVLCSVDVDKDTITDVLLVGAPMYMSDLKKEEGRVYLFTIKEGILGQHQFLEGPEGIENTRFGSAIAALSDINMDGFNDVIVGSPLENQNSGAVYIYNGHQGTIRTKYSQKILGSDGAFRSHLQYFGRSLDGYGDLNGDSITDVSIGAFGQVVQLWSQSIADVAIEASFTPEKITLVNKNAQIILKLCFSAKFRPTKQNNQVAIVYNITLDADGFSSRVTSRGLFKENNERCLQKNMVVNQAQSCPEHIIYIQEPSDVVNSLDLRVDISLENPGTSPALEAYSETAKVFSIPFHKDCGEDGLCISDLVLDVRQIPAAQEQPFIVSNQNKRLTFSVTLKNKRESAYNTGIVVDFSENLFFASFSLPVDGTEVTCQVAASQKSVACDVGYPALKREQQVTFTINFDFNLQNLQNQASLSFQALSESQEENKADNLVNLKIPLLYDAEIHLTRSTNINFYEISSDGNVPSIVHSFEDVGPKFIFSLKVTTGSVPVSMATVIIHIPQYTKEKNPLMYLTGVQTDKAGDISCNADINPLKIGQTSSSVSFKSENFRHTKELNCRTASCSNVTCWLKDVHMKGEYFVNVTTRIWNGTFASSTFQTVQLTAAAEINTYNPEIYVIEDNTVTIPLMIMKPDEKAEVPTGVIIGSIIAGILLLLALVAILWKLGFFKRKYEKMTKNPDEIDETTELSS
# T2 sequence (P05556 21-798): as the sequence (P05556 21-798) above
# T4 sequence (P08648 42-894 limits assumed): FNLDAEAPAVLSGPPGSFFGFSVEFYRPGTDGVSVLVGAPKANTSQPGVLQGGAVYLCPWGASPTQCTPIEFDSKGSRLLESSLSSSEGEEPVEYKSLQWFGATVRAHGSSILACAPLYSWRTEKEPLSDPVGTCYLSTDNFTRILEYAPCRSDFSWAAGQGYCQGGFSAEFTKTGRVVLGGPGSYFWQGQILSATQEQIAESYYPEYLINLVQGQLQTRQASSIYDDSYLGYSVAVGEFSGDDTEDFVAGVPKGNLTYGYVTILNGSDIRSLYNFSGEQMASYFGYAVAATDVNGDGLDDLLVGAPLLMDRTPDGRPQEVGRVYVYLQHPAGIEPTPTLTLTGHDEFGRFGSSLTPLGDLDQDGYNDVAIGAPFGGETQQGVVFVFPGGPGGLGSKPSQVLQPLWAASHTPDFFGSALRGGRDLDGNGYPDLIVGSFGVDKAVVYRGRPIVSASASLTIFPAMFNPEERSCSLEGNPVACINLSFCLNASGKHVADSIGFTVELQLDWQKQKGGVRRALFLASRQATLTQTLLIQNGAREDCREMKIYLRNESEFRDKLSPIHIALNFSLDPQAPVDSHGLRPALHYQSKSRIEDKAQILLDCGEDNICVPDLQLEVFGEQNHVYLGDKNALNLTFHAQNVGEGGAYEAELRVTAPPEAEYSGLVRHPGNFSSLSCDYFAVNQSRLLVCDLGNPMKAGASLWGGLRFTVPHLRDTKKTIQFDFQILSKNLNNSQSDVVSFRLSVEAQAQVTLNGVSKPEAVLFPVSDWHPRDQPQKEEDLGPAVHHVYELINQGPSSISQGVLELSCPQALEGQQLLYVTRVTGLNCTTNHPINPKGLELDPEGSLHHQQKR
# T4 sequence (P08648 895-1049 limits assumed): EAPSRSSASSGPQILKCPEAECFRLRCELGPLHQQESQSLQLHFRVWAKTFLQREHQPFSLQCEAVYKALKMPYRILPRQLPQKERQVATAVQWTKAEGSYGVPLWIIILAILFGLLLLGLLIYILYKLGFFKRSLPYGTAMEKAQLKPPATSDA
# T4 sequence (P05556 21-798): as the sequence (P05556 21-798) above
compound,measurement,setting,value
"CSCC[C@H](NC(=O)[C@@H](NC(=O)CNC(=O)[C@@H](N)CCCCN)[C@@H](C)O)C(=O)N[C@@H](CC(C)C)C(=O)N[C@@H](CC(=O)O)C(=O)NCC(=O)N[C@@H](CC(C)C)C(N)=O [sequence 6, KG39TMLDG44L] (H-KGTMLDGL-NH2; N-terminus and C-terminus assumed)",half-life,[1],7 min
same,IC50,α1β1-collagen IV,> 10000 µM
same,IC50,α2β1-collagen I,> 10000 µM
same,IC50,α9β1,1450 ± 125 µM
same,IC50,α5β1-fibronectin,> 10000 µM
same,IC50,[2],1550 ± 125 µM
